System: E. coli 12140
Assay: In vivo mouse protection, E. coli 12140
Conditions: Escherichia coli, po, E. coli 12140, p.o.
Excerpt: Compound names corresponding to numbers are given in the experimental section. For comparative purposes, data for cephamandole, which is 7-mandelamido-3-(1-methyltetrazol-5-ylthiomethyl)-3-cephem-4-carboxylic acid, is also given in Tables 1 and 2.

Which ED50 does the source give for N[C@@H](C(=O)NC1C(=O)N2C(C(=O)O)=C(CSc3nnnn3CC(=O)O)CS[C@H]12)c1ccc(O)cc1 (stereo partly drawn) [II, 7-(D-α-Amino-4-hydroxyphenylacetamido)-3-(1-carboxymethyl-tetrazol-5-ylthiomethyl)-3-cephem-4-carboxylic acid] here?
Its ED50 is 200 mg/kg.

From patent US4286089A, “7-Acyl-3-(substituted tetrazolyl thiomethyl)cephalosporins” (SmithKline Corporation, priority 1974, dated 1981)
